Values after ≈ are worked out from the molar mass of the structure shown. Like-named read-outs stand apart in the source and are kept apart here. *1 amine or outer side, *2 acyl side, *3 side chain or, on linkers, in order; H or OH if unused. Where a SMILES comes first, the peptide text is derived from it. Bridges are numbered along the chain shown (N, C = ends). [ ]: non-standard residue; d: D form. The star is where a group is joined. ξ: configuration not given here. Phe(3,5-F2) = N[C@@H](Cc1cc(F)cc(F)c1)C(=O)O; Morpholine(3S-CO) = O=C(O)[C@@H]1COCCN1; Pro(4R-Me) = C[C@H]1CN[C@H](C(=O)O)C1; NH(3,4-Me2-phenyl) = Cc1ccc(N*)cc1C; NMeaThr = CN[C@H](C(=O)O)[C@H](C)O; Hyp = O=C(O)[C@@H]1C[C@@H](O)CN1; NH(4-Et-phenyl) = CCc1ccc(N*)cc1; Heptenoyl(2E) = CCCC/C=C/C(=O)*; NH(4-Me-phenyl) = Cc1ccc(N*)cc1; ξNMeThr = CNC(C(=O)O)[C@@H](C)O; aThr = C[C@H](O)[C@H](N)C(=O)O; Pip = O=C(O)[C@@H]1CCCCN1; X4 = c1cc2c(cc1N*)CCC2; X8 = c1cc2c(cc1N*)CCO2; X6 = Cc1cc(C)cc(N*)c1; CO = O=C([*:1])[*:2]; X7 = CC/C=C/C(=O)*
What was measured:
Format in all cases: cell-based
[1] = system: Staphylococcus aureus, NRS70; assay: Minimal inhibitory concentration assay (microbroth dilution)
Outline: (§1)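 MIC is the lowest concentration stopping visible growth after overnight aerobic culture at 37 °C, per CLSI microbroth dilution (about 10^5 cfu/mL; two-fold series, top final 200 μM). ClpP-inactivated S. aureus USA 300 tested alongside parent strain to probe ClpP-mediated killing.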

[2] = system: Bacillus subtilis, ATCC 23857; assay: as above
Outline: as §1

[3] = system: Streptococcus pyogenes, ATCC 700294; assay: as above
Outline: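 Plates with two-fold compound dilution series in broth were incubated overnight, aerobically, at 37° C, following CLSI microdilution guidance.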

[4] = Cytotoxicity assay (CellTiter-Glo cell viability, 72 hours); details: African green monkey
Outline: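 Viability measured by CellTiter-Glo luminescence after 72-hour compound exposure (serial dilutions, DMSO control) of Vero monolayers seeded at 5000 cells/well in 10% FBS DMEM. IC50 values are the range of two biologically independent experiments, each run in duplicate.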

[5] = system: Staphylococcus aureus, ATCC 29213; assay: Minimal inhibitory concentration assay (microbroth dilution); details: ATCC29213, read-out: Minimal Inhibitory Concentrations S. aureus ATCC 29213
Outline: as §1

[6] = Staphylococcus aureus, NRS70, read-out: Minimal Inhibitory Concentrations S. aureus NRS70
[7] = Bacillus subtilis, ATCC23857, read-out: Minimal Inhibitory Concentrations B. subtilis ATCC 23857
[8] = Streptococcus pyogenes, ATCC700294, read-out: Minimal Inhibitory Concentrations S. pyogenes ATCC 700294
[9] = Vero cells, 72 hours, growth inhibition, read-out: Cytotoxicity IC50
[10] = Staphylococcus aureus, NRS70; read-out: Minimal Inhibitory Concentrations S. aureus NRS70

| SMILES | MIC [1, 6] [µM] | MIC [2, 7] [µM] | MIC [3, 8] [µM] | IC50 at 72 h [4, 9] [µM] | MIC [1, 10] [µM] | MIC ([2]; Bacillus subtilis, ATCC23857; read-out: Minimal Inhibitory Concentrations B. subtilis ATCC 23857) [µM] | MIC [5] [µM] | MIC ([3]; Streptococcus pyogenes, ATCC700294; read-out: Minimal Inhibitory Concentrations S. pyogenes ATCC 700294) [µM] | IC50 at 72 h [4] [µM] |
| --- | --- | --- | --- | --- | --- | --- | --- | --- | --- |
| Cc1ccc(NC(=O)N[C@@H](Cc2cc(F)cc(F)c2)C(=O)N[C@H]2COC(=O)[C@@H]3C[C@@H](C)CN3C(=O)[C@H](C)NC(=O)C([C@@H](C)O)N(C)C(=O)[C@@H]3CCCN3C2=O)cc1 (stereo partly drawn) [Compound 322, (S)-3-(3,5-difluorophenyl)-N-((2R,6S,9R,11aS,17S,20aS)-9-((R)-1-hydroxyethyl)-2,6,10-trimethyl-5,8,11,16,20-pentaoxohexadecahydro-1H,5H,16H-dipyrrolo[2,1-c:2′,1′-l][1]oxa[4,7,10,13]tetraazacyclohexadecin-17-yl)-2-(3-(p-tolyl)ureido)propanamide] ({NH(4-Me-phenyl)-CO}-[Phe(3,5-F2)]SP[ξNMeThr]A[Pro(4R-Me)]; ester 2-C) | 0.313 (≈ 0.25 µg/mL) | 0.078 (≈ 0.0622 µg/mL) | 0.625 (≈ 0.499 µg/mL) | 47.8 ± 3.2 | – | – | – | – | – |
| CCc1ccc(NC(=O)N[C@@H](Cc2cc(F)cc(F)c2)C(=O)N[C@@H]2C(=O)N3C[C@H](O)C[C@H]3C(=O)N3CCCC[C@H]3C(=O)N[C@@H](C)C(=O)N3C[C@H](C)C[C@H]3C(=O)O[C@H]2C)cc1 [Compound 211, (S)-3-(3,5-difluorophenyl)-2-(3-(4-ethylphenyl)ureido)-N-((2R,6S,8aS,14aS,16R,20S,21S,23aS)-16-hydroxy-2,6,21-trimethyl-5,8,14,19,23-pentaoxooctadecahydro-1H,5H,14H,19H-pyrido[2,1-i]dipyrrolo[2,1-c:2′,1′-l][1]oxa[4,7,10,13]tetraazacyclohexadecin-20-yl)propanamide] ({NH(4-Et-phenyl)-CO}-[Phe(3,5-F2)][aThr][Hyp][Pip]A[Pro(4R-Me)]; ester 2-C) | – | – | – | – | 0.02 (≈ 0.0168 µg/mL) | 0.8 (≈ 0.67 µg/mL) | 0.04 (≈ 0.0335 µg/mL) | < 0.2 | – |
| C[C@@H]1C[C@H]2C(=O)O[C@@H](C)[C@H](NC(=O)[C@H](Cc3cc(F)cc(F)c3)NC(=O)Nc3ccc4c(c3)CCC4)C(=O)N3CCC[C@H]3C(=O)N3CCCC[C@H]3C(=O)N[C@@H](C)C(=O)N2C1 [Compound 302, (S)-3-(3,5-difluorophenyl)-2-(3-(2,3-dihydro-1H-INDEN-5-yl)ureido)-N-((2R,6S,8aS,14aS,20S,21S,23aS)-2,6,21-trimethyl-5,8,14,19,23-pentaoxooctadecahydro-1H,5H,14H,19H-pyrido[2,1-i]dipyrrolo[2,1-c:2′,1′-l][1]oxa[4,7,10,13]tetraazacyclohexadecin-20-yl)propanamide] ({X4-CO}-[Phe(3,5-F2)][aThr]P[Pip]A[Pro(4R-Me)]; ester 2-C) | 0.039 (≈ 0.0325 µg/mL) | – | – | 13.2 ± 1.1 | – | – | 0.059 (≈ 0.0492 µg/mL) | – | – |
| C[C@@H]1C[C@H]2C(=O)O[C@@H](C)[C@H](NC(=O)[C@H](Cc3cc(F)cc(F)c3)NC(=O)Nc3ccc4c(c3)CCO4)C(=O)N3CCC[C@H]3C(=O)N3CCCC[C@H]3C(=O)N[C@@H](C)C(=O)N2C1 [Compound 305, (S)-3-(3,5-difluorophenyl)-2-(3-(2,3-dihydrobenzofuran-5-yl)ureido)-N-((2R,6S,8aS,14aS,20S,21S,23aS)-2,6,21-trimethyl-5,8,14,19,23-pentaoxooctadecahydro-1H,5H,14H,19H-pyrido[2,1-i]dipyrrolo[2,1-c:2′,1′-l][1]oxa[4,7,10,13]tetraazacyclo-hexadecin-20-yl)propanamide] ({X8-CO}-[Phe(3,5-F2)][aThr]P[Pip]A[Pro(4R-Me)]; ester 2-C) | 0.24 (≈ 0.201 µg/mL) | – | – | 39 ± 2.7 | – | – | 0.24 (≈ 0.201 µg/mL) | – | – |
| Cc1ccc(NC(=O)N[C@@H](Cc2cc(F)cc(F)c2)C(=O)N[C@@H]2C(=O)N3C[C@H](O)C[C@H]3C(=O)N3CCCC[C@H]3C(=O)N[C@@H](C)C(=O)N3C[C@H](C)C[C@H]3C(=O)O[C@H]2C)cc1C [Compound 212, (S)-3-(3,5-difluorophenyl)-2-(3-(3,4-dimethylphenyl)ureido)-N-((2R,6S,8aS,14aS,16R,20S,21S,23aS)-16-hydroxy-2,6,21-trimethyl-5,8,14,19,23-pentaoxooctadecahydro-1H,5H,14H,19H-pyrido[2,1-i]dipyrrolo[2,1-c:2′,1′-l][1]oxa[4,7,10,13]tetraazacyclohexadecin-20-yl)propanamide] ({NH(3,4-Me2-phenyl)-CO}-[Phe(3,5-F2)][aThr][Hyp][Pip]A[Pro(4R-Me)]; ester 2-C) | 0.002 (≈ 0.00168 µg/mL) | < 0.2 | < 0.2 | – | – | – | 0.005 (≈ 0.00419 µg/mL) | – | – |
| Cc1ccc(NC(=O)N[C@@H](Cc2cc(F)cc(F)c2)C(=O)N[C@@H]2C(=O)N3CCC[C@H]3C(=O)N3CCCC[C@H]3C(=O)N[C@@H](C)C(=O)N3C[C@H](C)C[C@H]3C(=O)O[C@H]2C)cc1 [Compound 209, (S)-3-(3,5-difluorophenyl)-2-(3-(p-tolyl)ureido)-N-((2R,6S,8aS,14aS,20S,21S,23aS)-2,6,21-trimethyl-5,8,14,19,23-pentaoxooctadecahydro-1H,5H,14H,19H-pyrido[2,1-i]dipyrrolo[2,1-c:2′,1′-l][1]oxa[4,7,10,13]tetraazacyclohexadecin-20-yl)propanamide] ({NH(4-Me-phenyl)-CO}-[Phe(3,5-F2)][aThr]P[Pip]A[Pro(4R-Me)]; ester 2-C) | – | 0.05 (≈ 0.0404 µg/mL) | 0.2 (≈ 0.162 µg/mL) | 40 ± 4.1 | – | – | 0.05 (≈ 0.0404 µg/mL) | – | – |
| CC/C=C/C(=O)N[C@@H](Cc1cc(F)cc(F)c1)C(=O)N[C@@H]1C(=O)N2C[C@H](O)C[C@H]2C(=O)N2CCCC[C@H]2C(=O)N[C@@H](C)C(=O)N2C[C@H](C)C[C@H]2C(=O)O[C@H]1C [Compound 300] (X7-[Phe(3,5-F2)][aThr][Hyp][Pip]A[Pro(4R-Me)]; ester 2-C) | 2.5 (≈ 1.93 µg/mL) | – | – | > 100 | – | – | 1.9 (≈ 1.47 µg/mL) | – | – |
| Cc1ccc(NC(=O)N[C@@H](Cc2cc(F)cc(F)c2)C(=O)N[C@@H]2C(=O)N3CCC[C@H]3C(=O)N(C)[C@@H]([C@H](C)O)C(=O)N[C@@H](C)C(=O)N3C[C@H](C)C[C@H]3C(=O)O[C@H]2C)cc1 [Compound 208, (S)-3-(3,5-difluorophenyl)-N-((2R,6S,9S,11aS,17S,18S,20aS)-9-((S)-1-hydroxyethyl)-2,6,10,18-tetramethyl-5,8,11,16,20-pentaoxohexadecahydro-1H,5H,16H-dipyrrolo[2,1-c:2′,1′-l][1]oxa[4,7,10,13]tetraazacyclohexadecin-17-yl)-2-(3-(p-tolyl)ureido)propanamide] ({NH(4-Me-phenyl)-CO}-[Phe(3,5-F2)][aThr]P[NMeaThr]A[Pro(4R-Me)]; ester 2-C) | – | 0.05 (≈ 0.0406 µg/mL) | 0.1 (≈ 0.0812 µg/mL) | 46.1 ± 5.5 | – | – | 0.05 (≈ 0.0406 µg/mL) | – | – |
| Cc1ccc(NC(=O)N[C@@H](Cc2cc(F)cc(F)c2)C(=O)N[C@@H]2C(=O)N3C[C@H](O)C[C@H]3C(=O)N3CCOC[C@H]3C(=O)N[C@@H](C)C(=O)N3C[C@H](C)C[C@H]3C(=O)O[C@H]2C)cc1C [Compound 215, (S)-3-(3,5-difluorophenyl)-2-(3-(3,4-dimethylphenyl)ureido)-N-((6aS,8R,12S,13S,15aS,17R,21S,23aS)-8-hydroxy-13,17,21-trimethyl-6,11,15,20,23-pentaoxooctadecahydro-6H,11H,15H-[1,4]oxazino[3,4-i]dipyrrolo[2,1-c:2′,1′-l][1]oxa[4,7,10,13]tetraazacyclohexadecin-12-yl)propanamide] ({NH(3,4-Me2-phenyl)-CO}-[Phe(3,5-F2)][aThr][Hyp][Morpholine(3S-CO)]A[Pro(4R-Me)]; ester 2-C) | 0.8 (≈ 0.672 µg/mL) | 3.1 (≈ 2.6 µg/mL) | < 0.2 | – | – | – | 0.4 (≈ 0.336 µg/mL) | – | – |
| Cc1cc(C)cc(NC(=O)N[C@@H](Cc2cc(F)cc(F)c2)C(=O)N[C@@H]2C(=O)N3CCC[C@H]3C(=O)N3CCCC[C@H]3C(=O)N[C@@H](C)C(=O)N3C[C@H](C)C[C@H]3C(=O)O[C@H]2C)c1 [Compound 304, (S)-3-(3,5-difluorophenyl)-2-(3-(3,5-dimethylphenyl)ureido)-N-((2R,6S,8aS,14aS,20S,21S,23aS)-2,6,21-trimethyl-5,8,14,19,23-pentaoxooctadecahydro-1H,5H,14H,19H-pyrido[2,1-i]dipyrrolo[2,1-c:2′,1′-l][1]oxa[4,7,10,13]tetraazacyclo-hexadecin-20-yl)propanamide] ({X6-CO}-[Phe(3,5-F2)][aThr]P[Pip]A[Pro(4R-Me)]; ester 2-C) | – | – | – | – | 0.059 (≈ 0.0485 µg/mL) | – | 0.079 (≈ 0.0649 µg/mL) | – | 21.3 ± 1.6 |
| CCCC/C=C/C(=O)N[C@@H](Cc1cc(F)cc(F)c1)C(=O)N[C@@H]1C(=O)N2C[C@H](O)C[C@H]2C(=O)N2CCCC[C@H]2C(=O)N[C@@H](C)C(=O)N2C[C@H](C)C[C@H]2C(=O)O[C@H]1C [Compound 301, (E)-N—((S)-3-(3,5-difluorophenyl)-1-(((2R,6S,8aS,14aS,16R,20S,21S,23aS)-16-hydroxy-2,6,21-trimethyl-5,8,14,19,23-pentaoxooctadecahydro-1H,5H,14H,19H-pyrido[2,1-i]dipyrrolo[2,1-c:2′,1′-l][1]oxa[4,7,10,13]tetraazacyclohexadecin-20-yl)amino)-1-oxopropan-2-yl)hept-2-enamide] ({Heptenoyl(2E)}-[Phe(3,5-F2)][aThr][Hyp][Pip]A[Pro(4R-Me)]; ester 2-C) | 0.079 (≈ 0.0633 µg/mL) | – | – | 61.1 ± 1.7 | – | – | 0.079 (≈ 0.0633 µg/mL) | – | – |

Source: US10457707B2, “Substituted urea depsipeptide analogs as activators of the CLPP endopeptidase” (priority 2015, dated 2019)
